Assay [1] concerns the target T1, GSK-3 (Toxoplasma gondii, UniProt O44002).
T1 sequence (O44002 1-394): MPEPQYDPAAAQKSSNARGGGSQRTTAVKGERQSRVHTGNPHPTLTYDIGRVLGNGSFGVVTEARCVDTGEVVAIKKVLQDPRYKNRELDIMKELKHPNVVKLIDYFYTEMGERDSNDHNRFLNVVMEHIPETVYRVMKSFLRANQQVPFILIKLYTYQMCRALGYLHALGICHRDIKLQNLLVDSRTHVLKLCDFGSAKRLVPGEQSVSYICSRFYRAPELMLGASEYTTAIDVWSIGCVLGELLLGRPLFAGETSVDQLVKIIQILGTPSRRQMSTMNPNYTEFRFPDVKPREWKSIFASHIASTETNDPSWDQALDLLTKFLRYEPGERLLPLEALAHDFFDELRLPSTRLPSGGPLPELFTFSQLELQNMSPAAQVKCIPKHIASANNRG
Nature of the assay: Species specificity: recombinant tagged GSK-3 orthologue kinase assay. The assay is classed as biochemical, Toxaplasma grondii.

The target of assay [2] is T2, GSK-3 (Cryptosporidium parvum, UniProt A3FQN0).
T2 sequence (A3FQN0 1-433): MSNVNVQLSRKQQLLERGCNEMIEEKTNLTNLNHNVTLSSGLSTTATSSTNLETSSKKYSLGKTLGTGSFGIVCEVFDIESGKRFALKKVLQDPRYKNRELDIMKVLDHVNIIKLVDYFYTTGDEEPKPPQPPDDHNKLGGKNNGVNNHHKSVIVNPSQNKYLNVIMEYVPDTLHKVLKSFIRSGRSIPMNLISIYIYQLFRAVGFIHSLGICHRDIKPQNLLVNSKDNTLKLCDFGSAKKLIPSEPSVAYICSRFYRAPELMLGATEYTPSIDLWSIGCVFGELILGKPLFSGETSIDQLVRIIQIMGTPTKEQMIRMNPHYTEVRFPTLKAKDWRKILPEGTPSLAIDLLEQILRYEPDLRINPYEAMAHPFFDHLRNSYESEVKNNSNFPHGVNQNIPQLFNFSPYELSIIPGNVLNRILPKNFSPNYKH
The description is as above. The format is biochemical.

Assay [3] addresses T3, GSK-3 (Dictyostelium discoideum, UniProt P51136).
T3 construct: made in house
Described as above. The format is biochemical. The text has this:
(§1) Given the strong conservation of GSK-3 across evolution and the surprising selectivity of the compounds according to the present invention towards PfGSK-3 versus mammalian GSK-3, a selection of 12 GSK-3 orthologues of various species chosen on the "tree of life" analyzed. The species belong to the Apicomplexa (P. falciparum, P. vivax, P. knowlesi and P. berghei (Gardner, M.J. et al. Genome sequence of the human malaria parasite Plasmodium falciparum. Nature 419, 498-511 (2002); Carlton, J.M. et al. Comparative genomics of the neglected human malaria parasite Plasmodium vivax. Nature 455, 799-803 (2008); Pain, A. et al. The genome of the simian and human malaria parasite Plasmodium knowlesi. Nature 455, 799-803 (2008).). Toxoplasma gondii (Qin, C.L., Tang, J. and Kim, K. Cloning and in vitro expression of TPK3, a Toxoplasma gondii homologue of shaggy/glycogen synthase kinase-3 kinases. Mol. Biochem. Parasitol. 93, 273-283 (1998)), Cryptosporidium parvum.
(§2) Following PCR amplification from cDNA libraries or direct synthesis based on databases sequences, the GSK-3 genes were inserted in appropriate expression vectors and recombinant, tagged kinases were expressed, affinity purified and assayed in the presence of up to 10-100µM of each compound of formula (I) according to the present invention and a selection of the PfGSK-3 inhibitors.

Assay [4] has as its target T4, GSK-3 (Plasmodium falciparum, UniProt O77344).
T4 construct: made in house
The assay is described as above. The format is biochemical.
From the text: as §1, §2

For assay [5], the target named is GSK-3 α/β. The description is as above. The format is biochemical. To be noted: calculated from dose-response curves; -(100) taken as no inhibition at 100; read-out: IC50 Sus scrofa (GSK-3 α/β).
From the text: as §1, §2

Assay [6] has as its target T5, GSK-3 α (Homo sapiens, UniProt P49840).
T5 construct: made in house
The description is as above. The format is biochemical. To be noted: calculated from dose-response curves; -(100) taken as no inhibition at 100.
From the text: as §1, §2

Assay [7] concerns the target T6, GSK-3 (Leishmania donovani, UniProt A6N857).
T6 sequence (A6N857 1-355): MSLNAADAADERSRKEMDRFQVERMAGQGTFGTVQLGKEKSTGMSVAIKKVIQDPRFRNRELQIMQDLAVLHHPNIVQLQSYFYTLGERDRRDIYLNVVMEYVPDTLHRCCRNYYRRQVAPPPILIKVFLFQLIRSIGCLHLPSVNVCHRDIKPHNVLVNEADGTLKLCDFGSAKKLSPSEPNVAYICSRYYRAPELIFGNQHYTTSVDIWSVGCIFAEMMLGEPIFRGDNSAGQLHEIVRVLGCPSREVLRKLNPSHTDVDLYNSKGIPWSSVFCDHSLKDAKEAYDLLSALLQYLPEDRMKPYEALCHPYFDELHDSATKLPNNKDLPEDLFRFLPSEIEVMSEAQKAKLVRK
The assay is described as above. The format is biochemical. Conditions: read-out: IC50 Leishmania donovani; calculated from dose-response curves.

Assay [8] concerns the target T7, GSK-3 (Leishmania major, UniProt Q4QE15).
T7 construct: made in house
Described as above. The format is biochemical, Leishmania majo.
From the text: as §1, §2

Assay [9] concerns the target T8, GSK-3 (Plasmodium knowlesi, UniProt A0A679KU36).
T8 sequence (A0A679KU36 1-473): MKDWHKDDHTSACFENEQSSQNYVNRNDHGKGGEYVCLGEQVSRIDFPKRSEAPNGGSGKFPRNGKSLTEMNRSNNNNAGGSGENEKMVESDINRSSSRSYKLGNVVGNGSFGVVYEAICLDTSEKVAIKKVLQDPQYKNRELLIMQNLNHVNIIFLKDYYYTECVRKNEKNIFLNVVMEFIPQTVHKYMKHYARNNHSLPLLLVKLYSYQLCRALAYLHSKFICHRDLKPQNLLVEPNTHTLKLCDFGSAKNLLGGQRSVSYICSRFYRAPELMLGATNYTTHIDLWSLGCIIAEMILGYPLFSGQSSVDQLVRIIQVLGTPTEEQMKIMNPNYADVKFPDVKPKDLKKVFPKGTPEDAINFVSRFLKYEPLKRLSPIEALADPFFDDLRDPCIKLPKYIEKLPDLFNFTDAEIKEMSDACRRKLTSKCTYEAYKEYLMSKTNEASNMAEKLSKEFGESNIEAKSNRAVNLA
The description is as above. To be noted: read-out: IC50 Plasmodium knowlesi; calculated from dose-response curves. The format is biochemical.

Assay [10] has as its target T9, GSK-3 (Trypanosoma cruzi, UniProt Q4E1X0).
T9 sequence (Q4E1X0 1-353): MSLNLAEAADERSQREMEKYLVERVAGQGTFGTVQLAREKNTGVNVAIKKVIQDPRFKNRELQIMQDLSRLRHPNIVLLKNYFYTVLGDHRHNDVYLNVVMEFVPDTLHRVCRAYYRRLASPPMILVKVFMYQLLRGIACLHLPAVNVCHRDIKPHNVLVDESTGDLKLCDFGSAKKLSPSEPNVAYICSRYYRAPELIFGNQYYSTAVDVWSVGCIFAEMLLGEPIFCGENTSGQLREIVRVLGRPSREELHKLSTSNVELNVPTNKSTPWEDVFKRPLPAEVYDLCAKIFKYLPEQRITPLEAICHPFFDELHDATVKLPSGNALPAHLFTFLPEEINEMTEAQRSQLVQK
The description is as above. The format is biochemical. To be noted: read-out: IC50 Trypanopsoma cruzi; calculated from dose-response curves; -(100) taken as no inhibition at 100.

Assay [11] deals with T10, PfGSK-3 (Plasmodium falciparum, UniProt O77344).
T10 construct: His6; made in house; host or cells: Escherichia coli TOP 10
T10 sequence (O77344 1-440): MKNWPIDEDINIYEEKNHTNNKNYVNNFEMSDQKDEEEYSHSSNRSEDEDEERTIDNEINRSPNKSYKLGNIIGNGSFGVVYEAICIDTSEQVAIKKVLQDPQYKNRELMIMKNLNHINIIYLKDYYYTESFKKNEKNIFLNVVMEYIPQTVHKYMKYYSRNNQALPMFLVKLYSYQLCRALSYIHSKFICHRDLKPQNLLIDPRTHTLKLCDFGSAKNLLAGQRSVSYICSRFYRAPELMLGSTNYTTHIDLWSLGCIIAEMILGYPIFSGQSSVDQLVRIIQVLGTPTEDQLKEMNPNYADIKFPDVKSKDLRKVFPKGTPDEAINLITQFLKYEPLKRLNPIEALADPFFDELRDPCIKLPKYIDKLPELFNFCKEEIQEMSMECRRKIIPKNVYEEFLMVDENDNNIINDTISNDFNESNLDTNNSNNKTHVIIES
The experiment in a line: Kinase assay with recombinant (His)6-tagged PfGSK3, GS-1 peptide and [γ-33P] ATP. The assay is classed as biochemical. Conditions: unit only in the introducing sentence b99, not in the table; read-out: IC50 PfGSK-3. As to the method: Escherichia coli strain (TOP 10) containing a plasmid encoding PfGSK3 with six histidines (pBAD-Thio-TOPO, Invitrogen) were cultured into 500 ml of LB medium containing 100 µg/ml ampicillin, at 37°C, under shaking (250 rpm) until OD600 of 0.5 was reached. Expression was induced with 0.5 ml of 20% arabinose (0.02% final concentration). The culture was grown at 37°C with shaking for 4 hours. Cells were harvested by centrifugation at 9000 rpm for 10 min. The bacterial pellet was stored frozen at -80°C until further processing. For proteins extraction, pellet was resuspended in 10 ml of lysis buffer (50 mM NaH2PO4 pH 8.0, 300 mM NaCl, 10 mM imidazole) with the addition of protease inhibitors (complete EDTA-free, Roche) and lysozyme ([…] final). Cells were disrupted by sonication and the cell lysate was centrifuged at 24000 rpm for 30 min at 4°C. The recombinant PfGSK3 protein was purified by Immobilized Metal Affinity Chromatography according to a batch procedure on 1 ml of Nickel affinity resin (Ni-NTA agarose beads, Qiagen). Beads were washed four times with 10 ml of wash buffer (50 mM NaH2PO4 pH 8.0, 300 mM NaCl, 30 mM imidazole). Protein was eluted with one volume of elution buffer (50 mM NaH2PO4 pH 8.0, 300 mM NaCl, 250 mM imidazole, 10% glycerol).
(§3) Both porcine GSK3 and PfGSK3 were assayed with 40 µM GS-1 peptide, a specific GSK-3 substrate, ([…]pEDEEE, synthesized by the Peptide Synthesis Unit, Institute of Biomolecular Sciences, University of Southampton, U.K.), in buffer A (25 mM Tris-HCl pH 7.5, 10 mM MgC12, 1 mM EGTA, 1 mM DTT, 50 µg heparin/ml, 0.5 mg BSA/ml) in the presence of 15 µM [γ-^33P] ATP (3000 Ci/mmol; 1 mCi/ml) in a final volume of 30 µl. After 30 min. incubation at 30°C, 25 µl aliquots of supernatant were spotted onto 2.5 x 3 cm pieces of Whatman P81 phosphocellulose paper, and, 20 sec. later, the filters were washed five times (for at least 5 min. each time) in 1 % phosphoric acid. The wet filters were counted in the presence of 1 ml ACS (Amersham) scintillation fluid. The kinase activity was expressed in pmoles phosphate incorporated in GS-1 or in percentage of the maximal activity.

For assay [12], the target named is Mammalian GSK-3 (GSK-3α/β). Nature of the assay: Kinase assay with native porcine GSK3 purified from porcine brain, GS-1 peptide and [γ-33P] ATP. The assay is classed as biochemical. Conditions: -(10) taken as no inhibition at 10; read-out: IC50 Mammalian GSK-3. As to the method:
Porcine GSK3 (GSK-3α/β) was purified from porcine brain by affinity chromatography on immobilized axin according to the protocol described in Primot et al (Protein Expression and Purification 20, 394-404, 2000).
as §3

A value given as a limit tells only on which side of the number the result lay.

T3 sequence (P51136 whole entry): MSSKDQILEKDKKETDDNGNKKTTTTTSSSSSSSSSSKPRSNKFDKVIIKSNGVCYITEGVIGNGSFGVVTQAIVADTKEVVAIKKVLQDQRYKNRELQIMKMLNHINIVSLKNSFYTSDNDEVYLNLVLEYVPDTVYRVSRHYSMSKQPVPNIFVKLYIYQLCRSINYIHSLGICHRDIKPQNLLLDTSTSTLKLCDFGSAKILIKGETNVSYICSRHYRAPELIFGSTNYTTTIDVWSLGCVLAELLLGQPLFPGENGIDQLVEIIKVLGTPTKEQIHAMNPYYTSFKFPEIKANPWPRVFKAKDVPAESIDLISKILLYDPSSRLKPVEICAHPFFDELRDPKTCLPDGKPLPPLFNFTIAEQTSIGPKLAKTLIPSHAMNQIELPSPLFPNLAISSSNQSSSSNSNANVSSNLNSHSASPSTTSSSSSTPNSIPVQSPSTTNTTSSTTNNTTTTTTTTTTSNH
T7 sequence (Q4QE15 entry or part of it): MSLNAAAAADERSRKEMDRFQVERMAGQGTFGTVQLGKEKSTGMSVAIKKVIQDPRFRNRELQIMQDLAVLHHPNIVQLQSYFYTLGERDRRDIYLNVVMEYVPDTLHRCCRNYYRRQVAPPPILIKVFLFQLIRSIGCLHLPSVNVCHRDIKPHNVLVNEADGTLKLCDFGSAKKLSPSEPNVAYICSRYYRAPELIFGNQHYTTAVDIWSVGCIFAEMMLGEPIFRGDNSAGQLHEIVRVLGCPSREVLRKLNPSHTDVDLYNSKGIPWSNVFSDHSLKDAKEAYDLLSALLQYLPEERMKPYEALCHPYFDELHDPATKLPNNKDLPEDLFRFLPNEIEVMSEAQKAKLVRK
T5 sequence (P49840 whole entry): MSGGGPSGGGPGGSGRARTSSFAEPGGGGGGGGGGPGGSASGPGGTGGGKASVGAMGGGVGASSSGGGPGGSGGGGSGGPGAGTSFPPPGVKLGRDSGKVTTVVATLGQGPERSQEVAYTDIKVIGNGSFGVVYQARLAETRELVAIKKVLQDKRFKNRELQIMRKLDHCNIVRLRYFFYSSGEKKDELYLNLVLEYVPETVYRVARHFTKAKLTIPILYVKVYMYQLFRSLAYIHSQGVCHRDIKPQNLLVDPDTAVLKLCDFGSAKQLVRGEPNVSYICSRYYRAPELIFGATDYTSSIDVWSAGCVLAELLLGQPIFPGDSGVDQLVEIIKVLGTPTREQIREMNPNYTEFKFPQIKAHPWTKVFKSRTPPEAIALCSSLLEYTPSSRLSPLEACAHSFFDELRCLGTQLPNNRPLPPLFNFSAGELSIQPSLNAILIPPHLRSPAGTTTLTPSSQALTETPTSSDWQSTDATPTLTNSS

For `N#Cc1c(N)nc2sc(C(=O)c3ccc(Cl)cc3)c(N)c2c1-c1ccccc1I` [Compound 1, 3,6-diamino-2-(4-chlorobenzoyl)-4-(2-iodophenyl)thieno[2,3-b]pyridine-5-carbonitrile], the IC50 is above 100 µM in assay [1]; above 100 µM in assay [2]; above 100 µM in assay [3]; 1.9 µM in assay [4]; above 100 µM in assay [5]; above 100 µM in assay [6]. The IC50 in [7] is 80 µM; in [8], above 100 µM; in assay [9], 15.5 µM; in assay [10], above 100 µM.

On to `N#Cc1sc2nc(N)c(C#N)c(-c3cccs3)c2c1N` [Compound 41, 3,6-diamino-4-(2-thienyl)thieno[2,3-b]pyridine-2,5-dicarbonitrile], for which the IC50 in assay [11] came to 0.18 µM; in [12] it was 2.3 µM.

`N#Cc1c(N)nc2sc3c(=S)[nH]cnc3c2c1-c1ccccc1Cl` [Compound 47, 7-amino-9-(2-chlorophenyl)-4-thioxo-3,4-dihydropyrido[3',2':4,5]thieno[3,2-d]pyrimidine-8-carbonitrile]: the IC50 was found to be 0.13 µM in assay [11] and 0.06 µM in assay [12].

These data come from patent publication EP2308883A1, “New derivatives of thieno[2,3-b]pyridine and 5,6,7,8 tetrahydrothieno[2,3 b]quinoline in particular useful in the treatment of malaria” (priority 2009, dated 2011).
